Laboratory results reported in patent US20210009564A1, “CALPAIN MODULATORS AND THERAPEUTIC USES THEREOF” (BLADE THERAPERTICS, INC., priority 2018, published 2021).

Assays:
[1] = tested on: Calpain activity in SH-SY5Y cells; test: SH-SY5Y Suc-LLVY-AMC fluorescence assay; assay type: cell-based; details: Homo sapiens, read-out: SH-SY5Y + AMC IC50
[2] = tested on: Calpain activity in SH-SY5Y cells; test: SH-SY5Y spectrin breakdown product (SBDP-150) western blot assay; assay type: cell-based; details: Homo sapiens, read-out: SH-SY5Y Spectrin IC50
Human Calpain 1/NS1 = target: T1, Human Calpain 1/NS1 (Homo sapiens, UniProt P07384); test: Calpain inhibition, continuous fluorescence (FRET substrate) assay, calpain 1; assay type: biochemical; details: SensoLyte 520 FRET substrate, 25C
T1 sequence (P07384 1-714): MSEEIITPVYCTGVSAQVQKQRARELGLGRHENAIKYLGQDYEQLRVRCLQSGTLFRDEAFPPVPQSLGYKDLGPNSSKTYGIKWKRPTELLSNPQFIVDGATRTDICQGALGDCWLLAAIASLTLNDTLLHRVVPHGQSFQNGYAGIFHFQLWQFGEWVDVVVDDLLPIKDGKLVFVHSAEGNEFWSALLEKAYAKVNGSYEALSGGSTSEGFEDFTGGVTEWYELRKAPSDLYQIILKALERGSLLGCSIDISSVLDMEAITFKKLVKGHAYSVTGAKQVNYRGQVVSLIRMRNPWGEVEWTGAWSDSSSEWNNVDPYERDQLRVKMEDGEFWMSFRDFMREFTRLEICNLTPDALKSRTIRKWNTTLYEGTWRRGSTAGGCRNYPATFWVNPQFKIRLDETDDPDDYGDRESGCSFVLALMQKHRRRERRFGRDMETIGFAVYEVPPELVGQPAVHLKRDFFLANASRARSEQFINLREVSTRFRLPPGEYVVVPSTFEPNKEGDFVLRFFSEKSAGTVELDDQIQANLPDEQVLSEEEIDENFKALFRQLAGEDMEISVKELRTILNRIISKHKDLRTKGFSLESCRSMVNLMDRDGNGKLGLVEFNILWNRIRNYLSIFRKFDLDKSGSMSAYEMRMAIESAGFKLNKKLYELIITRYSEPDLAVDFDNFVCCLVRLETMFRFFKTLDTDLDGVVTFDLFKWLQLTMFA
T1 sequence (P04632 1-268 partner): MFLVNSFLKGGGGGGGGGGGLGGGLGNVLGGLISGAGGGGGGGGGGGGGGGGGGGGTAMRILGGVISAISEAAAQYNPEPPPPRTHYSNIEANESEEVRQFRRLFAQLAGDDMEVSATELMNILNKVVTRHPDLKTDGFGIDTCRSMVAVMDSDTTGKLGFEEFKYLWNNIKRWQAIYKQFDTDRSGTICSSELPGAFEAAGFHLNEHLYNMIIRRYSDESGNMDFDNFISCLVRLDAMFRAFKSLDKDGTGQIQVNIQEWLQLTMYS
In short: (§1)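 Calpains preincubated with serially diluted inhibitors at 25 °C in 50 mM Tris pH 7.5, 100 mM NaCl, 1 mM DTT; CaCl2 plus 5-FAM/QXL 520 FRET substrate started the reaction. Fluorescence (490/520 nm) read 10 min; rates from 1-5 min slopes, IC50 from 4-parameter logistic fit.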

Human Calpain 2/NS1 = target: T2, Human Calpain 2/NS1 (Homo sapiens, UniProt P17655); test: Calpain inhibition, continuous fluorescence (FRET substrate) assay, calpain 2; assay type: biochemical; details: SensoLyte 520 FRET substrate, 25C
T2 sequence (P17655 1-700): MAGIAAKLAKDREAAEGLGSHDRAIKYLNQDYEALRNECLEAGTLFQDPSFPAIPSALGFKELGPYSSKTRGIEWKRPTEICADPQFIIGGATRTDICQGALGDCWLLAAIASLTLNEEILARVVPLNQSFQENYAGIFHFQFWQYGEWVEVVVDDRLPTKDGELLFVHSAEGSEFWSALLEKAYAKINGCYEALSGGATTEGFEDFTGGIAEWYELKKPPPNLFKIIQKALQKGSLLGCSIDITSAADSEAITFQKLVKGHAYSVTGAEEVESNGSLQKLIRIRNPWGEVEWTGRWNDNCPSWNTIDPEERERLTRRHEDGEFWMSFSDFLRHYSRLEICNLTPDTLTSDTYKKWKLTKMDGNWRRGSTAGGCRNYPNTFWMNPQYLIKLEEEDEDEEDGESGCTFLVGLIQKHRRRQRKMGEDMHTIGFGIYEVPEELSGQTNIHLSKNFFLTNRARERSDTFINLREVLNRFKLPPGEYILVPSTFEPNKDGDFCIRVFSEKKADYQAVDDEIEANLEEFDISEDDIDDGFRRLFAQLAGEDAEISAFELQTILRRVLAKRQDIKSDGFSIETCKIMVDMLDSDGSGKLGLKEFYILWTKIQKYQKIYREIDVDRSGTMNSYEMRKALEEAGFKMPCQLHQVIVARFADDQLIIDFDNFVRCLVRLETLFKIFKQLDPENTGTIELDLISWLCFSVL
T2 sequence (P04632 1-268 partner): T1 sequence (P04632 1-268 partner)
In short: as §1

Human Calpain 9/NS1 = target: T3, Human Calpain 9/NS1 (Homo sapiens, UniProt O14815); test: Calpain inhibition, continuous fluorescence (FRET substrate) assay, calpain 9; assay type: biochemical; details: SensoLyte 520 FRET substrate, 25C
T3 sequence (O14815 1-690): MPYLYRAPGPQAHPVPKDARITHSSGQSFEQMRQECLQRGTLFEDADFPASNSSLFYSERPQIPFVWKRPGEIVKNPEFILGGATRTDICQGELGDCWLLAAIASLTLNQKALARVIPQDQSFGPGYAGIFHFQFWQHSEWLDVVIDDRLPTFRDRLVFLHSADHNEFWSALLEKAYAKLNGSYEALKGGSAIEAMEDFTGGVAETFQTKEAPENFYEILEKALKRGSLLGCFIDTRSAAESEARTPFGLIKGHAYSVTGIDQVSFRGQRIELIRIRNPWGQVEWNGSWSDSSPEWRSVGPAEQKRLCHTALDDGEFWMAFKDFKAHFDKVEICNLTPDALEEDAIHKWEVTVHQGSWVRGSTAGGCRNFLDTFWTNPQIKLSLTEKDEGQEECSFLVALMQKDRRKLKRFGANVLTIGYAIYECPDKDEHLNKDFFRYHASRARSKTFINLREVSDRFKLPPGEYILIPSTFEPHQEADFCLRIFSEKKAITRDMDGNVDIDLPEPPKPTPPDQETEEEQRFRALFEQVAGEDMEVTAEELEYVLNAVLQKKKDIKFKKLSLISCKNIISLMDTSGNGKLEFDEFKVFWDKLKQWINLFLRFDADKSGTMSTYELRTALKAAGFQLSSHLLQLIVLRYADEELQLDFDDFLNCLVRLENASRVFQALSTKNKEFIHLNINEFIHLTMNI
T3 sequence (P04632 1-268 partner): T1 sequence (P04632 1-268 partner)
In short: as §1

[3] = SH-SY5Y cells, 100 uM Suc-LLVY-AMC
[4] = SH-SY5Y cells, 25 uM A23187, SBDP-150 western blot

Row | SMILES | IC50 [1, 3] [µM] | IC50 [2, 4] [µM] | IC50 (Human Calpain 1/NS1) [µM] | IC50 (Human Calpain 2/NS1) [µM] | IC50 (Human Calpain 9/NS1) [µM] | IC50 ([1]; SH-SY5Y) [µM] | IC50 ([2]; SH-SY5Y) [µM]
1 | Cn1cc(C(=O)NC(Cc2ccccc2)C(=O)C(N)=O)c(-n2cnc3ccc(F)cc32)n1 (stereo not drawn) [Compound 47, N-(4-AMINO-3,4-DIOXO-1-PHENYLBUTAN-2-YL)-3-(6-FLUORO-1H-BENZO[D]IMIDAZOL-1-YL)-1-METHYL-1H-PYRAZOLE-4-CARBOXAMIDE] | > 25 | 10 to 25 | < 3 | < 3 | < 3 | – | –
2 | Cn1cc(C(=O)NC(Cc2ccccc2)C(=O)C(N)=O)c(-n2cnc3cc(F)ccc32)n1 (stereo not drawn) [Compound 48, N-(4-AMINO-3,4-DIOXO-1-PHENYLBUTAN-2-YL)-3-(5-FLUORO-1H-BENZO[D]IMIDAZOL-1-YL)-1-METHYL-1H-PYRAZOLE-4-CARBOXAMIDE] | 10 to 25 | < 10 | < 3 | < 3 | < 3 | – | –
3 | Cn1cc(C(=O)NC(Cc2ccccc2)C(=O)C(N)=O)c(-c2ncnc3ccccc23)n1 (stereo not drawn) [Compound 49, N-(4-AMINO-3,4-DIOXO-1-PHENYLBUTAN-2-YL)-1-METHYL-3-(QUINAZOLIN-4-YL)-1H-PYRAZOLE-4-CARBOXAMIDE] | 10 to 25 | > 25 | < 3 | < 3 | < 3 | – | –
4 | NC(=O)C(=O)C(Cc1ccccc1)NC(=O)c1cn(C(F)F)nc1-c1cccc2oc(=O)[nH]c12 (stereo not drawn) [Compound 50, N-(4-AMINO-3,4-DIOXO-1-PHENYLBUTAN-2-YL)-1-(DIFLUOROMETHYL)-3-(2-OXO-2,3-DIHYDROBENZO[D]OXAZOL-4-YL)-1H-PYRAZOLE-4-CARBOXAMIDE] | 10 to 25 | 10 to 25 | < 3 | < 3 | < 3 | – | –
5 | Cn1cc(C(=O)NC(Cc2ccccc2)C(=O)C(N)=O)c(-c2cccc3scnc23)n1 (stereo not drawn) [Compound 51, N-(4-AMINO-3,4-DIOXO-1-PHENYLBUTAN-2-YL)-3-(BENZO[D]THIAZOL-4-YL)-1-METHYL-1H-PYRAZOLE-4-CARBOXAMIDE] | > 25 | 10 to 25 | < 3 | < 3 | < 3 | – | –
6 | NC(=O)C(=O)C(Cc1ccccc1)NC(=O)c1nsnc1-c1coc(Cl)c1 (stereo not drawn) [Compound 52, N-(4-AMINO-3,4-DIOXO-1-PHENYLBUTAN-2-YL)-4-(5-CHLOROFURAN-3-YL)-1,2,5-THIADIAZOLE-3-CARBOXAMIDE] | > 25 | 10 to 25 | < 3 | < 3 | < 3 | – | –
7 | Cn1cc(C(=O)NC(Cc2ccccc2)C(=O)C(N)=O)c(-c2cccc3ccncc23)n1 (stereo not drawn) [Compound 54] | > 25 | > 25 | < 3 | < 3 | < 3 | – | –
8 | Cc1cc(-c2nn(C)cc2C(=O)NC(Cc2ccccc2)C(=O)C(N)=O)c(C)o1 (stereo not drawn) [Compound 55, N-(4-AMINO-3,4-DIOXO-1-PHENYLBUTAN-2-YL-3-(2,5-DIMETHYLFURAN-3-YL)-1-METHYL-1H-PYRAZOLE-4-CARBOXAMIDE] | < 10 | > 25 | < 3 | < 3 | < 3 | – | –
9 | O=C(NC(Cc1ccccc1)C(=O)Nc1ncco1)c1nsnc1-c1ccccc1 (stereo not drawn) [Compound 57, N-(1-(OXAZOL-2-YLAMINO)-1-OXO-3-PHENYLPROPAN-2-YL)-4-PHENYL-1,2,5-THIADIAZOLE-3-CARBOXAMIDE] | > 25 | > 25 | > 10 | > 10 | > 10 | – | –
10 | Cc1nc(-c2cccc3ccccc23)c(C(=O)NC(Cc2ccccc2)C(=O)C(N)=O)o1 (stereo not drawn) [Compound 58, N-(4-AMINO-3,4-DIOXO-1-PHENYLBUTAN-2-YL)-2-METHYL-4-(NAPHTHALEN-1-YL)OXAZOLE-5-CARBOXAMIDE] | < 10 | < 10 | < 3 | < 3 | < 3 | – | –
11 | Cc1cc(C(=O)NC(Cc2ccccc2)C(=O)C(N)=O)nn1-c1nccc(-c2ccccc2)n1 (stereo not drawn) [Compound 59, N-(4-AMINO-3,4-DIOXO-1-PHENYLBUTAN-2-YL)-5-METHYL-1-(4-PHENYLPYRIMIDIN-2-YL)-1H-PYRAZOLE-3-CARBOXAMIDE] | – | – | > 10 | 3 to 10 | > 10 | < 10 | > 25
12 | O=C(O)C(=O)C(Cc1ccccc1)NC(=O)c1cn(C2CC2)nc1-c1ccccc1 (stereo not drawn) [Compound 60, 3-(1-CYCLOPROPYL-3-PHENYL-1H-PYRAZOLE-4-CARBOXAMIDO)-2-OXO-4-PHENYLBUTANOIC ACID] | 10 to 25 | 10 to 25 | < 3 | < 3 | < 3 | – | –
13 | Cn1cc2c(-c3nn(C(F)F)cc3C(=O)NC(Cc3ccccc3)C(=O)C(N)=O)cccc2n1 (stereo not drawn) [Compound 61, N-(4-AMINO-3,4-DIOXO-1-PHENYLBUTAN-2-YL)-1-(DIFLUOROMETHYL)-3-(2-METHYL-2H-INDAZOL-4-YL)-1H-PYRAZOLE-4-CARBOXAMIDE] | < 10 | < 10 | < 3 | < 3 | < 3 | – | –
14 | Cn1ncc2c(-c3nn(C(F)F)cc3C(=O)NC(Cc3ccccc3)C(=O)C(N)=O)cccc21 (stereo not drawn) [Compound 62, N-(4-AMINO-3,4-DIOXO-1-PHENYLBUTAN-2-YL)-1-(DIFLUOROMETHYL)-3-(1-METHYL-1H-INDAZOL-4-YL)-1H-PYRAZOLE-4-CARBOXAMIDE] | < 10 | < 10 | < 3 | < 3 | < 3 | – | –
15 | NC(=O)C(=O)C(Cc1ccccc1)NC(=O)c1cn(C(F)F)nc1-c1ncnc2ccccc12 (stereo not drawn) [Compound 63, N-(4-AMINO-3,4-DIOXO-1-PHENYLBUTAN-2-YL)-1-(DIFLUOROMETHYL)-3-(QUINAZOLIN-4-YL)-1H-PYRAZOLE-4-CARBOXAMIDE] | < 10 | 10 to 25 | < 3 | < 3 | < 3 | – | –
